Structures are written as SMILES.

The test relates to BT-474 cancer cells. The test is described as follows: Inhibition of BT-474 cell proliferation (CellTiter-Glo). Format: cell-based. The settings on record: Homo sapiens, BT-474 cells, 120 hours. The procedure, abridged: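 BT-474 cells in RPMI-1640 with 20% FBS, seeded 48 h before dosing with 11 three-fold dilutions (final 0.2 nM to 10 μM). Viability read by CellTiter-Glo luminescence 120 h after treatment, triplicate tests. GI50 derived from growth rate (%) versus control.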
A word on the GI50: it is the concentration at which growth is held to half of that of the control. Take `COc1cc(Oc2ccn3ncnc3c2)c(C)cc1Nc1ncnc2cc(N3CC(F)(F)C3)c(NC(=O)/C(F)=C/[C@H]3CCCN3C)cc12` [Example 114, (R,Z)—N-(4-((4-([1,2,4]triazolo[1,5-a]pyridin-7-yloxy)-2-methoxy-5-methylphenyl)amino)-7-(3,3-difluoroazetidin-1-yl)quinazolin-6-yl)-2-fluoro-3-(1-methylpyrrolidin-2-yl)acrylamide]: the GI50 is not above 0.05 µM.
Consider `CCOc1cc2ncnc(Nc3cc(C)c(Oc4ccn5ncnc5c4)cc3OC)c2cc1NC(=O)/C(F)=C/[C@H]1CCCN1C` [Example 120, (R,Z)—N-(4-((4-([1,2,4]triazolo[1,5-a]pyridin-7-yloxy)-2-methoxy-5-methylphenyl)amino)-7-ethoxyquinazolin-6-yl)-2-fluoro-3-(1-methylpyrrolidin-2-yl)acrylamide], for which the GI50 was not above 0.05 µM.
The same measure for `COc1cc2ncnc(Nc3cc(C)c(Oc4ccc(N(C)C)cc4)cc3OC)c2cc1NC(=O)/C(F)=C\[C@H]1CCCN1C` [Example 123, (R,E)-N-(4-((4-(4-(dimethylamino)phenoxy)-2-methoxy-5-methylphenyl)amino)-7-methoxyquinazolin-6-yl)-2-fluoro-3-(1-methylpyrrolidin-2-yl)acrylamide]: 0.05 to 0.1 µM; for `COc1cc2ncnc(Nc3cc(C)c(Oc4ccc(C(=O)N(C)C)cc4)cc3OC)c2cc1NC(=O)/C(F)=C/[C@H]1CCCN1C` [Example 125, (R,Z)-4-(4-((6-(2-fluoro-3-(1-methylpyrrolidin-2-yl)acrylamido)-7-methoxyquinazolin-4-yl)amino)-5-methoxy-2-methylphenoxy)-N,N-dimethylbenzamide]: 0.05 to 0.1 µM; for `COc1cc2ncnc(Nc3cc(C)c(Oc4ccc(C(=O)N(C)C)cc4)cc3OC)c2cc1NC(=O)/C(F)=C\[C@H]1CCCN1C` [Example 126, (R,E)-4-(4-((6-(2-fluoro-3-(1-methylpyrrolidin-2-yl)acrylamido)-7-methoxyquinazolin-4-yl)amino)-5-methoxy-2-methylphenoxy)-N,N-dimethylbenzamide]: 0.1 to 0.5 µM.
The same measure for `COc1cc2ncnc(Nc3cc(N(C)C)c(Oc4ccn5ncnc5c4)cc3OC)c2cc1NC(=O)/C(F)=C\[C@H]1CCCN1C` [Example 127, (R,E)-N-(4-((4-([1,2,4]triazolo[1,5-a]pyridin-7-yloxy)-5-(dimethylamino)-2-methoxyphenyl)amino)-7-methoxyquinazolin-6-yl)-2-fluoro-3-(1-methylpyrrolidin-2-yl)acrylamide]: 0.1 to 0.5 µM.
The same measure for `COc1cc2ncnc(Nc3cc(C)c(Oc4ccn5ncnc5c4)cc3OC)c2cc1NC(=O)/C(F)=C/[C@H]1CCCCN1C` [Example 131, (R,Z)—N-(4-((4-([1,2,4]triazolo[1,5-a]pyridin-7-yloxy)-2-methoxy-5-methylphenyl)amino)-7-methoxyquinazolin-6-yl)-2-fluoro-3-(1-methylpiperidin-2-yl)acrylamide]: not above 0.05 µM.
For the compound `CCOc1cc2ncc(C#N)c(Nc3cc(C)c(Oc4ccn5ncnc5c4)cc3OC)c2cc1NC(=O)/C(F)=C\[C@H]1CCCN1C` [Example 132, (R,E)-N-(4-((4-([1,2,4]triazolo[1,5-a]pyridin-7-yloxy)-2-methoxy-5-methylphenyl)amino)-3-cyano-7-ethoxyquinolin-6-yl)-2-fluoro-3-(1-methylpyrrolidin-2-yl)acrylamide], the GI50 is 0.1 to 0.5 µM.
The same measure for `COc1cc2ncnc(Nc3cc(C)c(Oc4cccc(NC(C)=O)c4)cc3OC)c2cc1NC(=O)/C(F)=C/[C@H]1CCCN1C` [Example 133, (R,Z)—N-(4-((4-(3-acetamidophenoxy)-2-methoxy-5-methylphenyl)amino)-7-methoxyquinazolin-6-yl)-2-fluoro-3-(1-methylpyrrolidin-2-yl)acrylamide]: not above 0.05 µM.
On to `COc1cc2ncnc(Nc3cc(C)c(Oc4ccn5ncnc5c4)cc3OC)c2cc1NC(=O)/C(F)=C/[C@H]1CCCN1` [Example 135, (R,Z)—N-(4-((4-([1,2,4]triazolo[1,5-a]pyridin-7-yloxy)-2-methoxy-5-methylphenyl)amino)-7-methoxyquinazolin-6-yl)-2-fluoro-3-(pyrrolidin-2-yl)acrylamide], for which the GI50 is not above 0.05 µM.
As for `COc1cc2ncnc(Nc3cc(C4CC4)c(Oc4ccn5ncnc5c4)cc3OC)c2cc1NC(=O)/C(F)=C/[C@H]1CCCN1C` [Example 137, (R,Z)—N-(4-((4-([1,2,4]triazolo[1,5-a]pyridin-7-yloxy)-5-cyclopropyl-2-methoxyphenyl)amino)-7-methoxyquinazolin-6-yl)-2-fluoro-3-(1-methylpyrrolidin-2-yl)acrylamide], the figure is 0.05 to 0.1 µM; as for `COc1cc2ncnc(Nc3cc(Br)c(Oc4ccn5ncnc5c4)cc3OC)c2cc1NC(=O)/C(F)=C/[C@H]1CCCN1C` [Example 139, (R,Z)—N-(4-((4-([1,2,4]triazolo[1,5-a]pyridin-7-yloxy)-5-bromo-2-methoxyphenyl)amino)-7-methoxyquinazolin-6-yl)-2-fluoro-3-(1-methylpyrrolidin-2-yl)acrylamide], not above 0.05 µM; as for `COc1cc2ncnc(Nc3cc(Br)c(Oc4ccn5ncnc5c4)cc3OC)c2cc1NC(=O)/C(F)=C\[C@H]1CCCN1C` [Example 140, (R,E)-N-(4-((4-([1,2,4]triazolo[1,5-a]pyridin-7-yloxy)-5-bromo-2-methoxyphenyl)amino)-7-methoxyquinazolin-6-yl)-2-fluoro-3-(1-methylpyrrolidin-2-yl)acrylamide], not above 0.05 µM.
As for `COc1cc(Oc2ccn3ncnc3c2)c(C)cc1Nc1ncnc2ccc(NC(=O)/C(F)=C/[C@H]3CCCN3C)c(Cl)c12` [Example 141, (R,Z)—N-(4-((4-([1,2,4]triazolo[1,5-a]pyridin-7-yloxy)-2-methoxy-5-methylphenyl)amino)-5-chloroquinazolin-6-yl)-2-fluoro-3-(1-methylpyrrolidin-2-yl)acrylamide], the figure is not above 0.05 µM; as for `COc1cc2ncnc(Nc3cc(C)c(Oc4ccn5ncnc5c4)cc3OC)c2cc1NC(=O)/C(C#N)=C\C(C)(C)N1CCN(C2COC2)CC1` [Example 144, (Z)—N-(4-((4-([1,2,4]triazolo[1,5-a]pyridin-7-yloxy)-2-methoxy-5-methylphenyl)amino)-7-methoxyquinazolin-6-yl)-2-cyano-4-methyl-4-(4-(oxetan-3-yl)piperazin-1-yl)pent-2-enamide], more than 0.5 µM.
As for `C=C(C(=O)Nc1cc2c(Nc3cc(C)c(Oc4ccn5ncnc5c4)cc3OC)ncnc2cc1OC)n1cccn1` [Example 147, N-(4-((4-([1,2,4]triazolo[1,5-a]pyridin-7-yloxy)-2-methoxy-5-methylphenyl)amino)-7-methoxyquinazolin-6-yl)-2-(1H-pyrazol-1-yl)acrylamide], the figure is 0.1 to 0.5 µM; as for `[2H]C([2H])([2H])Oc1cc(Oc2ccn3ncnc3c2)c(C)cc1Nc1ncnc2cc(OC)c(NC(=O)/C=C/[C@H]3CCCN3C)cc12` [Example 148, (R,E)-N-(4-((4-([1,2,4]triazolo[1,5-a]pyridin-7-yloxy)-2-(methoxy-d3)-5-methylphenyl)amino)-7-methoxyquinazolin-6-yl)-3-(1-methylpyrrolidin-2-yl)acrylamide], not above 0.05 µM; as for `[2H]C([2H])([2H])Oc1cc(Oc2ccn3ncnc3c2)c(C)cc1Nc1ncnc2cc(OC)c(NC(=O)/C(F)=C/[C@H]3CCCN3C)cc12` [Example 149, (R,Z)—N-(4-((4-([1,2,4]triazolo[1,5-a]pyridin-7-yloxy)-2-(methoxy-d3)-5-methylphenyl)amino)-7-methoxyquinazolin-6-yl)-2-fluoro-3-(1-methylpyrrolidin-2-yl)acrylamide], not above 0.05 µM.
As to `[2H]C([2H])([2H])Oc1cc(Oc2ccn3ncnc3c2)c(C)cc1Nc1ncnc2cc(OC)c(NC(=O)/C(F)=C\[C@H]3CCCN3C)cc12` [Example 150, (R,E)-N-(4-((4-([1,2,4]triazolo[1,5-a]pyridin-7-yloxy)-2-(methoxy-d3)-5-methylphenyl)amino)-7-methoxyquinazolin-6-yl)-2-fluoro-3-(1-methylpyrrolidin-2-yl)acrylamide], the GI50 was not above 0.05 µM.
As for `[2H]C([2H])([2H])Oc1cc(Oc2ccn3ncnc3c2)c(F)cc1Nc1ncnc2cc(OC)c(NC(=O)/C(F)=C/[C@H]3CCCN3C)cc12` [Example 151, (R,Z)—N-(4-((4-([1,2,4]triazolo[1,5-a]pyridin-7-yloxy)-5-fluoro-2-(methoxy-d3)phenyl)amino)-7-methoxyquinazolin-6-yl)-2-fluoro-3-(1-methylpyrrolidin-2-yl)acrylamide], the figure is not above 0.05 µM.
As for `[2H]C([2H])([2H])Oc1cc(Oc2ccn3ncnc3c2)c(F)cc1Nc1ncnc2cc(OC)c(NC(=O)/C(F)=C\[C@H]3CCCN3C)cc12` [Example 152, (R,E)-N-(4-((4-([1,2,4]triazolo[1,5-a]pyridin-7-yloxy)-5-fluoro-2-(methoxy-d3)phenyl)amino)-7-methoxyquinazolin-6-yl)-2-fluoro-3-(1-methylpyrrolidin-2-yl)acrylamide], the figure is not above 0.05 µM; as for `[2H]C([2H])([2H])N1CCC[C@@H]1/C=C/C(=O)Nc1cc2c(Nc3cc(C)c(Oc4ccn5ncnc5c4)cc3OC)ncnc2cc1OC` [Example 153, (R,E)-N-(4-((4-([1,2,4]triazolo[1,5-a]pyridin-7-yloxy)-2-methoxy-5-methylphenyl)amino)-7-methoxyquinazolin-6-yl)-3-(1-(methyl-d3)pyrrolidin-2-yl)acrylamide], not above 0.05 µM; as for `[2H]C([2H])([2H])N1CCC[C@@H]1/C=C(\F)C(=O)Nc1cc2c(Nc3cc(C)c(Oc4ccn5ncnc5c4)cc3OC)ncnc2cc1OC` [Example 154, (R,Z)—N-(4-((4-([1,2,4]triazolo[1,5-a]pyridin-7-yloxy)-2-methoxy-5-methylphenyl)amino)-7-methoxyquinazolin-6-yl)-2-fluoro-3-(1-(methyl-d3)pyrrolidin-2-yl)acrylamide], not above 0.05 µM.
